In US5744499A, “Apoptosis-modulating factors influencing the intracellular concentration of methional/malondialdehyde” (Centre International de Recherches Dermatologiques Galderma, priority 1994, dated 1998):

How the values were obtained:
[1] = system: HeLa cells; experiment: 2-oxobutyrate reversal of MTOB-induced growth inhibition of HeLa cells (methionine-free medium); assay type: cell-based
Protocol: HeLa cells (0.5×10^6 per Petri dish) were cultured in 3 ml of a minimum essential Eagle medium not containing methionine and containing 10% by weight dialyzed fetal calf serum. After four hours, 2-oxobutyrate (10 mM-40 mM) in the presence of 2 mM 4-methylthio-2-oxobutanoic acid (MTOB) were added. After three days at 37° C., the cells were washed twice in a buffered, phosphatized saline medium having a pH of 7.5 (PBS medium) and collected in the same type of buffer. Cell growth was measured in the same manner as in the preceding example.
Beginning at a level of 10 mM 2-oxobutyrate, inhibition decreased 2-3 times.

[2] = system: BAF3 cells; experiment: Apoptosis of BAF3 cells, terminal deoxynucleotidyl transferase (TdT) test, flow cytometry; assay type: cell-based, mouse; conditions: 24 hours; compound A 50 μM, BCNU 40 μg/ml, or both; control 0.2
Protocol: Effect of BCNU and of an inhibitor of the transaminase implicated in the transformation of 4-methylthio-2-oxobutanoic acid into methionine on apoptosis:
The DNA strand cuttings were marked with biotinylated dUTP (detected by avidin fluorescein), in situ, in the cells rendered permeable and fixed using the terminal DNA transferase deoxynucleotidyl test (TdT), as described in Gorczyca et al, Cancer Res., 53, 1945-1951 (1993). 1.5×10^6 BAF3 cells (cell line described above) seeded in 3 ml of a culture medium containing IL3 (Dulbecco-modified Eagle medium containing 6% fetal calf serum and 5% of a medium treated with Wehl-3B cells used in the IL3 source). The cells were incubated in the presence of compound A in a concentration of 50 μM, 40 μg/ml of BCNU, and the mixture of these two compounds (50 μM of compound A+40 μg/ml of BCNU) or in the absence of these two compounds (control). After a 24-hour incubation period of time, the cells were washed in PBS buffer and fixed in formaldehyde, then in ethanol, and maintained a -20° C. for 3 days. Next, the cells were again placed in suspension in 50 μl of a solution containing […] sodium cacodylate, pH=7.5, 1 mM CoCl2, 0.1 mM dithiothreitol, 0.05 mg/ml Bovine Serum Albumin, 10 units TdT (from Boerhringer calf thymus), 0.5 nmol dCTP, and 0.5 nmol dGTP for one hour at 37° C. […]

[3] = system: reactive oxygenated substances (H2 O2 and HO^-); experiment: Production of reactive oxygenated substances (H2O2 and HO-) in BAF3 cells, DCFH-DA flow cytometry; assay type: cell-based, mouse; conditions: for Fluorescence/10^6 cells: compound A 0 μM
[4] = system: murine B16 Fl melanoma cells; experiment: Survival of mice grafted with B16 melanoma cells; assay type: in vivo, mouse; conditions: BCNU 0.1 mg/kg, Compound A 25 mg/kg
Protocol: At t=0 day, 10^5 murine B16 Fl melanoma cells were injected into B6D2Fl mice (from the IFFA CREDO Company, France).
Table 5 reports the results corresponding to averages of the results obtained on three treated mice.
For the regimens containing multiple compounds, the quantities of each of the compounds used were identical to those of the regimens using the compounds by themselves.
Survival time was recorded beginning at t=0 day, as indicated above.
BCNU corresponds to N,N-Bis(2-chloroethyl)-N-nitrosourea. Compound A corresponds to the compound having formula (9), wherein X is a --OH radical.
Between the two regimens, the latter (to which methional was added) accounted for one-third of the mice surviving more than 60 days. The "average survival time" is the mean of the number of mice dying over the course of the experiment, i.e., within 60 days.
The procedure of the previous example was repeated, but the regimens and numbers of mice treated varied.
With respect to this latter regiment, the quantities corresponded to the quantities of compounds used alone. The percentage of long-term survivors corresponded to the percentage of mice which survived beyond 60 days.

[5] = system: HeLa cells; experiment: Effect of metabolites on the growth of HeLa cells; assay type: cell-based; conditions: Homo sapiens, 72 h, three days at 37° C., estimated by protein content, average of 3 or 4 experiments, read-out: IC50 (concentration required to inhibit cell growth by 50%)
Protocol: HeLa cells (0.5×10^6 per Petri dish) were cultured in 3 ml of a minimum essential Eagle medium containing 10% by weight dialyzed fetal calf serum. After four hours, methional (10 μM-1 mM), methionol (10 μM-20 mM), methylthiopropionic acid (MTPA) (1 μM-20 mM), L-methionine (1 μM-20 mM) or 4-methylthio-2-oxobutanoic acid (MTOB) (1 μM-20 mM) were added to each of the three dishes. After three days at 37° C., the cells were washed twice in a buffered, phosphatized saline medium having a pH of 7.5 (PBS medium) and collected in the same type of buffer.
Cell growth was assessed by measuring protein content (see technique described in O. H. Lowry, N. J. Rosebrouh, A. L. Farr, and R. J. Randall, J. Biol. Chem., 193, 265-275 (1951)) or the DNA content in the lysate using a bisbenzimide trihydrochloride solution (Hoechst 33258) (see W. D. Jarvis, R. N. Kolesnick, F. A. Fornari, R. S. Traylor, D. A. Gewirtz, and S. Grant, Proc. Natl. Acad. Sci. USA, 91, 73-77 (1994)), or by determining […] using 3-(4,5-dimethylthiazol-2-yl)-2,5-diphenyl-tetrazolium bromide (MTT) (see T. Mosmann, J. of Immunology, Methods, 65, 55-63 (1983)).
Each value of is the average of 3 or 4 experiments as estimated by protein content.
IC50 represents the concentration of compound required to inhibit cell growth by 50%.

[6] = system: BAF3-bO cells
Protocol: (§1) The cells used were identical to those in the preceding example.
(§2) [^14 C]MTOB was prepared by oxidative deamination of [^14 C]Methionine, as described in Ogier et al, Biochem. Pharmacol., 45, 1631-1644 (1993). [^14 C]MTOB (5×10^6 dpm corresponding to 38.2 nmol) was added to a cellular BAF3-bO or BAF3-bcl2 suspension (2.4×10^5 cells/ml) in DMEM containing 6% fetal calf serum and 5% IL3. 39 hours later, the cells were washed twice in PBS and placed in suspension at a concentration of 9×10^5 cells/ml. [U ^14 C]MTOB (1.9×10^6 dpm corresponding to 14.5 nmol) was added to 10^8 cells, and, eight hours later, the cells were collected by centrifugation at 400 g for five minutes. The cellular sediments were solubilized using 1.5 ml of 0.5N NaOh for 30 minutes at 60° C. The total radioactivity in the cells was measured on 10 μl aliquots. Next, perchloric acid in a final concentration of 0.5N, then 200 μmol of 2,4-DNPH (2,4-dinitrophenylhyrazine, marketed by Merck) were added to the alkaline hydrolyzate obtained. The mixture was heated to 70° C. for 30 minutes, then centrifuged at 400 g for five minutes. The precipitate was solubilized ion 1 ml of 0.5N NaOH, and the radioactivity and protein content were determined. NaOH, pH=10, was added to the supernatant. The marked metabolites were extracted in ethylene acetate, and the organic phase was dried, acidified, and extracted in dichloromethane. The marked metabolites in the organic phase were separated out and identified using high-performance thin-layer chromatography and compared to the 2,4-DNPH derivatives of the reference compounds, then quantified by radiochromatography.

[7] = system: BAF3-bcl2 cells
Protocol: as §1, §2

[8] = system: BAF3 cells; experiment: DNA fragmentation in BAF3 cells, agarose gel electrophoresis; assay type: cell-based, mouse; conditions: 200-800 μM, medium with IL3, 8 hours
Protocol: K. L. Collins, J. Marvel, […] A. Lopez-[…]. Exp. Med., 176, 1043-1051 (1992)]. […] After 8 hours of contact, the cells were washed three times in a phosphatized buffered saline medium, pH=7.5 (PBS medium). […] The supernatants were decanted and analyzed as indicated below. For purposes of comparison, the same cultures were grown in a medium, either with IL3 (+IL3) or without IL3 (-IL3). The DNA fragments obtained were analyzed qualitatively using the method described, in particular, in W. D. Jarvis, […], and S. Grant, Proc. Natl. Acad. Sci. USA, 91, 73-77 (1994). The supernatants were treated with ribonuclease A (20 μg/ml) for 1 hour at 37° C., and with the proteinase R (100 μg/ml). The DNA was purified using phenol extraction and precipitated with ethanol. […] After electrophoresis (60V, 3 hours), the gels were stained with ethydium bromide.

[9] = Table 5, three mice, daily injection for 15 days, Methional 25 mg/kg, control 20.5

## CCC(=O)C(=O)O [2-oxobutyrate]
[1]; beginning at 10 mM 2-oxobutyrate, with 2 mM MTOB
  decrease of growth inhibition: 2-3 times

## O=NN(CCCl)C(=O)NCCCl [BCNU, N,N-Bis(2-chloroethyl)-N-nitrosourea]
[2]
  % apoptotic cells: 2.3%
[3]; BCNU 10 μg/ml
  Fluorescence/10^6 cells: 4%
[3]; BCNU 20 μg/ml
  Fluorescence/10^6 cells: 4%
[3]; BCNU 40 μg/ml
  Fluorescence/10^6 cells: 10%
[4]; [9]
  Average Survival Time: 24.5 days
[4]; Table 6, 6 or 10 mice, Methional 50 mg/kg, control 0
  % long-term survivors (mice surviving beyond 60 days): 0%
[4]; Table 6, 6 or 10 mice, Methional 50 mg/kg, control 23.7
  Average Survival Time: 32.5 days

## CSCCC(NCc1c(CO)cnc(C)c1O)C(=O)OC(C)(C)C (stereo not drawn) [Compound A]
[2]
  % apoptotic cells: 0.3%
[3]; compound A 50 μM with BCNU
  effect on increase of HO^- resulting from increased BCNU concentration: suppressed the increase of HO^-
[4]; [9]
  Average Survival Time: 21.9 days

## CSCC[C@H](N)C(=O)O [L methionine, L-methionine]
[5]
  IC50: > 20 mM

## CSCCC(=O)C(=O)O [MTOB, 4-methylthio-2-oxobutanoic acid]
[1]; Homo sapiens, HeLa, 72 h, 2 mM MTOB alone, three days at 37° C.
  inhibition at 2000 µM: 72%
[5]
  IC50: 1.6 mM

## CSCCC(=O)O [MTPA, methylthiopropionic acid]
[5]
  IC50: 10 mM

## CSCCC(=O)C(=O)O [[^14 C]MTOB]
[6]; BAF3-bO
  2,4-DNPH malondialdehyde (2,4-DNPH pyrazole): 800 dpm/mg of DNA
  2,4-DNPH methional: 14,050 dpm/mg of DNA
  Free methional: 36,820 dpm/mg of DNA
  Spec. activity of cellular proteins: 23,500 dpm/mg protein
[6]; BAF3-bO compared with BAF3-bcl2
  radioactivity in methional higher in BAF3-bO than in BAF3-bcl2 cells: 80%
[6]; BAF3-bO, incubation 47 hours
  Total radioactivity/mg of DNA: 1,252,000 /mg of DNA
[7]; BAF3-bcl2
  2,4-DNPH malondialdehyde (2,4-DNPH pyrazole): 0 dpm/mg of DNA
  2,4-DNPH methional: 7,650 dpm/mg of DNA
  Free methional: 51,440 dpm/mg of DNA
  Spec. activity of cellular proteins: 20,850 dpm/mg protein
[7]; BAF3-bcl2, incubation 47 hours
  Total radioactivity/mg of DNA: 1,111,000 /mg of DNA
[7]; BAF3-bcl2 cell extracts
  marked malondialdehyde formation, result in words: no radioactivity with respect to the malondialdehyde was detected
[7]; BAF3-bcl2 compared with BAF3-bO
  increase in radioactivity of free methionine (printed metmonine) in BAF3-bcl2 versus BAF3-bO cells: 40%

## CSCCCO [methionol]
[5]
  IC50: > 20 mM

## CCCO [propanol]
[8]
  triggering of apoptosis (ladder of DNA fragments of 180 to 200 base pairs on gel): the gel did not possess this characteristic
